Laboratory results: patent US20020022266A1, “Localized delivery to a target surface” (priority 2000, published 2002)

Columns and labels:
Bovine carotid arteries = tested on: Bovine carotid arteries
Text: (§1) Bovine carotid and rabbit femoral arteries were harvested and placed into a container with DMEM. The arteries were then transferred to a petri dish with DPBS, and excess fat was removed from the vessel exterior with the aid of a scalpel and forceps. The vessel was then filleted with a pair of surgical scissors to expose the luminal surface. The lumen of the bovine vessel was scrape damaged with a spatula to simulate the damage that would occur during a vascular procedure in which plaque is scrapped off. The vessel was utilized without further preparation. The vessels were loaded into a tubular perfusion chamber. The wash medium used was DMEM with a 4.5 g/dl of bovine serum albumin [BSA] (Sigma). A syringe pump (Harvard Apparatus) was used to provide flow and mimic the arterial shear conditions that would be experienced in vivo. Initially, the vessel was perfused for five minutes with the wash medium. At this point, 1 mL of a 10 mM NHS-PEG-Biotin solution was injected into the chamber and incubated with the vessel for modification for one minute. Again, the wash medium was perfused for five minutes. Next, a 10 mL solution of NeutrAvidin-coated microspheres (Molecular Probes) at a concentration of 7.28×10^6 particles/mL was perfused over the modified surface for 2 minutes. The vessel was washed for five minutes one additional time and then removed from the chamber. Finally, the vessel was analyzed by counting the number of microspheres bound per mm^2 of tissue using epi-fluorescence microscopy. This same protocol was repeated for the control, with the vessel being incubated with DPBS alone and not the NHS-PEG-Biotin as described previously.

rabbit femoral arteries = conditions: 10 mM, one minute modification, two-minute perfusion, versus control, FIG. 3
Text: as §1

NHS-PEG-Biotin was tested, and the “number of microspheres bound per mm^2 of tissue” value (Bovine carotid arteries; bovine arteries, 10 mM, one minute modification, two-minute perfusion, versus control, FIG. 2) was “far greater than the control vessels”, the “binding of the microspheres to the modified versus unmodified surfaces (fluorescent micrographs)” value (Bovine carotid arteries; carotid artery segments, 10 mM NHS-PEG-Biotin, one minute, FIGS. 1A and 1B) was “microspheres have attached” and the “number of microspheres bound per mm^2 of tissue” value (rabbit femoral arteries) was “far greater than the control vessels”.
